Measurements published in patent US12162872B2, “Cycloalkylurea derivative” (Sumitomo Pharma Co., Ltd., priority 2019, dated 2024).

Target: T1, Human orexin receptor type 2 (Homo sapiens, UniProt O43614)
T1 construct: expressed in transfected cells; host or cells: CHO cells (transient expression)
T1 sequence (O43614 1-444): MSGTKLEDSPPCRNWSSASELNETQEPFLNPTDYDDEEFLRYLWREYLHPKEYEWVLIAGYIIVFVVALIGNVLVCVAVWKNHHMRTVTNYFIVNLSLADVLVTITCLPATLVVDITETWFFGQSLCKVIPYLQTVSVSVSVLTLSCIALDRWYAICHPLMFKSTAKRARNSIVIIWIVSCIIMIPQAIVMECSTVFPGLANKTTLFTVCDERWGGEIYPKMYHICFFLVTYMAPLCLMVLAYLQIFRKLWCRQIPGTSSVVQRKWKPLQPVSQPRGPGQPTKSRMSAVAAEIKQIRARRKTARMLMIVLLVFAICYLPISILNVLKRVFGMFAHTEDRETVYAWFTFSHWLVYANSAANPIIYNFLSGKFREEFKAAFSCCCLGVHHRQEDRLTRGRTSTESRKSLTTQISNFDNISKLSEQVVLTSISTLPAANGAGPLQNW
Test: Test 1: Evaluation of agonist activity for orexin receptor type 2 (aequorin luminescence, intracellular calcium mobilization in CHO cells)
Assay type: cell-based
Details: relative percentage of luminescence for the luminescence (100%) of Orexin A (100 pM); CHO cells transiently expressing human orexin receptor type 2 and apoaequorin; Orexin A Lot. 641114
Description: Test 1: Evaluation of Agonist Activity for Orexin Receptor Type 2
Human orexin receptor type 2 and apoaequorin were transiently expressed in CHO cells, and the agonist activity was evaluated based on intracellular calcium mobilization with ligand stimulation. The CHO cells transiently-expressed human orexin receptor type 2 and apoaequorin were seeded on a 384-well plate by 2,000 cells/well, and then incubated for 16-22 hours. After the plate was returned to room temperature, Coelenterazine hcp (final concentration: 1 μM) was added to the plate, and the plate was allowed to stand at room temperature for 2 hours. And then, Orexin A (PEPTIDE INSTITUTE, INC., Lot. 641114) or each test compound was added to the plate, and the luminescence of the cells was measured with FDSS7000 (Hamamatsu Photonics K.K.), wherein Orexin A and each test compound were dissolved in DMSO (final concentration: 0.1%), and diluted with a buffer (Hanks, 20 mM HEPES, 0.1% BSA). The agonist activity of each test compound for orexin receptor type 2 was calculated as relative percentage of luminescence for the luminescence (100%) of Orexin A (100 pM).

| Structure (SMILES) | agonist activity (%) |
| --- | --- |
| CC(C)N1CCN([C@H]2CCCC(F)(F)[C@@H]2NC(=O)N2CCC(C)(c3nsc(OC4CC4)n3)CC2)CC1 [Example 57, 4-[5-(cyclopropyloxy)-1,2,4-thiadiazol-3-yl]-N-{(1R,6S)-2,2-difluoro-6-[4-(propan-2-yl)piperazin-1-yl]cyclohexyl}-4-methylpiperidine-1-carboxamide] | 155% |
| CC(C)N1CCN([C@H]2CCCC(F)(F)[C@@H]2NC(=O)N2CCC(C)(c3nsc(C4CC4)n3)CC2)CC1 [Example 43, 4-(5-cyclopropyl-1,2,4-thiadiazol-3-yl)-N-{(1R,6S)-2,2-difluoro-6-[4-(propan-2-yl)piperazin-1-yl]cyclohexyl}-4-methylpiperidine-1-carboxamide] | 146% |
| Cc1ccc(C2(C)CCN(C(=O)N[C@@H]3[C@@H](N4CCN(C(C)C)CC4)CCCC3(F)F)CC2)cc1 [Example 49, N-{(1R,6S)-2,2-difluoro-6-[4-(propan-2-yl)piperazin-1-yl]cyclohexyl}-4-methyl-4-(4-methylphenyl)piperidine-1-carboxamide] | 151% |
| CC(C)N1CCN([C@@H]2CCCC(F)(F)[C@H]2NC(=O)N2CCC(C)(c3noc(C4CC4)n3)CC2)CC1 [Example 23, 4-(5-cyclopropyl-1,2,4-oxadiazol-3-yl)-N-{(1S,6R)-2,2-difluoro-6-[4-(propan-2-yl)piperazin-1-yl]cyclohexyl}-4-methylpiperidine-1-carboxamide] | 104% |
| CCc1nc(C2(C)CCN(C(=O)N[C@@H]3[C@@H](N4CCN(C(C)C)CC4)CCCC3(F)F)CC2)no1 (racemic) [Example 28, rac-N-{(1R,6S)-2,2-difluoro-6-[4-(propan-2-yl)piperazin-1-yl]cyclohexyl}-4-(5-ethyl-1,2,4-oxadiazol-3-yl)-4-methylpiperidine-1-carboxamide] | 190% |
| CC(C)N1CCN([C@H]2CCCC(F)(F)[C@@H]2NC(=O)N2CCC(C3CCCCC3)CC2)CC1 (racemic) [Example 35, rac-4-cyclohexyl-N-{(1R,6S)-2,2-difluoro-6-[4-(propan-2-yl)piperazin-1-yl]cyclohexyl}piperidine-1-carboxamide] | 165% |
| Cc1ccc(C2CC=C(C(=O)O[C@@H]3[C@@H](N4CCN(C(C)C)CC4)CCCC3(F)F)CC2)cc1 (mixture of isomers) [Example 78, rac-(1R,6S)-2,2-Difluoro-6-[4-(propan-2-yl)piperazin-1-yl]cyclohexyl 4′-methyl-1,2,3,6-tetrahydro[1,1′-biphenyl]-4-carboxylate] | 36% |
| Cc1ccc(C2CCN(C(=O)N[C@@H]3[C@@H](N4CCN(C(C)C)CC4)CCCC3(F)F)CC2)nc1 (racemic) [Example 50, rac-N-{(1R,6S)-2,2-difluoro-6-[4-(propan-2-yl)piperazin-1-yl]cyclohexyl}-4-(5-methylpyridin-2-yl)piperidine-1-carboxamide] | 154% |
| CC(C)N1CCN([C@H]2CCCC(F)(F)[C@@H]2NC(=O)N2CCC(C)(c3nnc(C4CC4)s3)CC2)CC1 [Example 44, 4-(5-cyclopropyl-1,3,4-thiadiazol-2-yl)-N-{(1R,6S)-2,2-difluoro-6-[4-(propan-2-yl)piperazin-1-yl]cyclohexyl}-4-methylpiperidine-1-carboxamide] | 148% |
| CC(C)N1C[C@@H](O[C@H]2CCCC(F)(F)[C@@H]2NC(=O)N2CCC(C)(c3noc(C4CC4)n3)CC2)C(F)(F)C1 [Example 76, 4-(5-cyclopropyl-1,2,4-oxadiazol-3-yl)-N-[(1R,6S)-6-{[(3R)-4,4-difluoro-1-(propan-2-yl)pyrrolidin-3-yl]oxy}-2,2-difluorocyclohexyl]-4-methylpiperidine-1-carboxamide] | 145% |
